{"source": "patent US20070207975A1", "about": "“Materials and methods for treating and preventing Her-2/neu overexpressing, FAS-elevated cancer cells” (EVANSTON NORTHWESTERN HEALTHCARE, priority 2006, published 2007)", "type_in_all_cases": "cell-based, human", "key": {"p185^Her-2/neu": {"system": "p185^Her-2/neu", "assay": "Flow cytometric analysis of cell surface-associated p185Her-2/neu", "conditions": "for reduction of cell surface-associated p185^Her-2/neu expression: 10 mM OA, 48 hours, 0.1% FBS; for down-regulation of p185^Her-2/neu expression: OA 5 mM, trastuzumab 5 mg/ml", "from_the_text": "FIG. 1. […] FIG. 2. […] The amount of cell surface-associated p185^Her-2/neu was quantified by flow cytometric analyses using a specific antibody against the extracellular domain of p185^Her-2/neu (Ab-5), as described herein. The mean fluorescence signal±SD (n=3) was quantified using the geo mean fluorescence (GM) parameter provided with the Cell Quest Software (Becton Dickinson). […] After labeling, cells were washed thoroughly, and localization of p185^Her-2/neu was detected by indirect immunofluorescence by incubating with FITC-conjugated anti-mouse IgG. After counterstaining with DAPI, cells were examined and photographed using a Zeiss fluorescent microscope equipped with a built-in camera. […] Before experiments, cells were serum-starved overnight and then cultured in IMEM containing 0.1% FBS in the absence or presence of GLA (Sigma Chemical Co., St. Louis, Mo.). GLA was prepared at a concentration of 1 mg/mL in ethanol and was added to a final concentration of 0, 5, 10, or 20 μg/mL; an equal volume of ethanol was added to control cells. […] A) Cell surface expression of Her-2/neu protein in BT-474 and SK-Br3 cells was determined by flow cytometry using a mouse anti-Her-2/neu antibody directed against the extracellular domain of the p185^Her-2/neu oncoprotein (clone Ab-5; Oncogene Research Products; San Diego, Calif.). Briefly, after GLA or control treatment, cells were washed, harvested, resuspended in phosphate-buffered saline (PBS) containing 1% FBS, and incubated with 5 μg/mL Ab-5 antibody for 1 hour at 4° C. The cells were washed again and then incubated with a fluorescein isothiocyanate (FITC)-conjugated anti-mouse IgG secondary antibody (Jackson ImnunoResearch Laboratories, West Grove, Pa.) diluted 1:200 in cold PBS containing 1% FBS for 45 minutes at 4° C. The cells were washed once more in cold PBS, and flow cytometric analysis was performed with a FACScalibur flow cytometer (Becton Dickinson, San Diego, Calif.) equipped with Cell Quest Software (Becton Dickinson). […] As a control for nonspecific immunofluorescence, cells were stained with the secondary antibody alone (solid black line). The mean fluorescence signal associated with cells for labeled p185^Her-2/neu was quantified using the Geo Mean (GM) fluorescence parameter provided with the software. […] B) Immunoblot analysis of Her-2/neu and PEA3 proteins in control- and GLA-treated BT-474 and SK-Br3 cells. […] Immunoreactive bands were detected by enhanced chemiluminescence reagent (Pierce, Rockford, Ill.). Blots were reprobed with an anti-β-actin goat polyclonal antibody (Santa Cruz Biotechnology) to control for protein loading and transfer. Densitometric values of protein bands were quantified using Scion Imaging Software (Scion Corp., Frederick, Md.)."}, "SK-Br3 and BT-474 cells": {"system": "SK-Br3 and BT-474 cells", "assay": "Soft-agar colony-formation assay"}, "PEA3": {"system": "PEA3", "assay": "Immunoblot analysis of PEA3 protein", "procedure": "[…] Louis, Mo.). […] […] A) Cell surface expression of Her-2/neu protein in BT-474 and SK-Br3 cells was determined by flow cytometry using a mouse anti-Her-2/neu antibody directed against the extracellular domain of the p185^Her-2/neu oncoprotein (clone Ab-5; Oncogene Research Products; San Diego, Calif.). Briefly, after GLA or control treatment, cells were washed, harvested, resuspended in phosphate-buffered saline (PBS) containing 1% FBS, and incubated with 5 μg/mL Ab-5 antibody for 1 hour at 4° C. The cells were washed again and then incubated with a fluorescein isothiocyanate (FITC)-conjugated anti-mouse IgG secondary antibody (Jackson ImnunoResearch Laboratories, West Grove, Pa.) diluted 1:200 in cold PBS containing 1% FBS for 45 minutes at 4° C. The cells were washed once more in cold PBS, and flow cytometric analysis was performed with a FACScalibur flow cytometer (Becton Dickinson, San Diego, Calif.) equipped with Cell Quest Software (Becton Dickinson). […] As a control for nonspecific immunofluorescence, cells were stained with the secondary antibody alone (solid black line). The mean fluorescence signal associated with cells for labeled p185^Her-2/neu was quantified using the Geo Mean (GM) fluorescence parameter provided with the software. […] B) Immunoblot analysis of Her-2/neu and PEA3 proteins in control- and GLA-treated BT-474 and SK-Br3 cells. Cells were washed twice with PBS and then lysed in buffer (20 m M Tris [pH 7.5], 150 m M NaCl, 1 mM EDTA, 1 m M EGTA, 1% Triton X-100, 2.5 m M sodium pyrophosphate, 1 mM β-glycerolphosphate, 1 mM Na3VO4, 1 μg/ml leupeptin, 1 mM phenylmethylsulfonyl fluoride) for 30 minutes on ice. Equal amounts of protein (10 μg) were heated in sodium dodecyl sulfate (SDS) sample buffer for 10 minutes at 70° C., subjected to electrophoresis on either 3-8% NuPAGE Tris-acetate (p185^Her-2/neu) or 10% SDS-polyacrylamide gel electrophoresis (PEA3) gels, and transferred to nitrocellulose membranes. Nonspecific binding was blocked by incubation for 1 hour with TBS-T (25 mM Tris-HCl [pH 7.5], 150 mM NaCl, and 0.05% Tween-20) containing 5% nonfat dry milk. The treated filters were washed in TBS-T and then incubated with primary antibodies, anti-p185^Her-2/neu mouse monoclonal antibody—Clone Ab-3 [Oncogene Research Products, San Diego, Calif.] and anti-PEA3 mouse monoclonal antibody—sc-113 [Santa Cruz Biotechnology, Santa Cruz, Calif.], for 2 hours in TBS-T containing 5% (w/v) nonfat dry milk. The membranes were washed in TBS-T and horseradish peroxidase—conjugated secondary antibodies in TBS-T were added for 45 minutes. Immunoreactive bands were detected by enhanced chemiluminescence reagent (Pierce, Rockford, Ill.). Blots were reprobed with an anti-β-actin goat polyclonal antibody (Santa Cruz Biotechnology) to control for protein loading and transfer. Densitometric values of protein bands were quantified using Scion Imaging Software (Scion Corp., Frederick, Md.)."}, "Her-2/neu mRNA": {"system": "Her-2/neu mRNA", "assay": "Semiquantitative RT-PCR of Her-2/neu transcripts"}, "AP-2": {"system": "AP-2", "assay": "AP-2 expression levels"}}}
{"smiles": "CCCCCCCCC=CCCCCCCCC(=O)O", "note": "[OA, 9-octadecenoic acid]", "values": [{"measurement": "reduction of cell surface-associated p185^Her-2/neu expression", "setting": "p185^Her-2/neu; BT-474 cells", "value": "up to 46%"}, {"measurement": "down-regulation of p185^Her-2/neu expression", "setting": "p185^Her-2/neu; BT-474 cells, alone or concurrently combined", "value": 36, "unit": "%"}, {"measurement": "reduction of cell surface-associated p185^Her-2/neu expression", "setting": "p185^Her-2/neu; SK-Br3 cells", "value": "up to 36%"}, {"measurement": "down-regulation of p185^Her-2/neu expression", "setting": "p185^Her-2/neu; SK-Br3 cells, alone or combined", "value": 24, "unit": "%"}, {"measurement": "anchorage-independent colony formation in soft agar", "setting": "SK-Br3 and BT-474 cells; SK-Br3 and BT-474, OA, trastuzumab or co-exposure", "value": "slightly decreased"}, {"measurement": "PEA3 protein levels", "setting": "PEA3; MCF-7/neo cells, OA supplementation", "value": "not significantly affected"}, {"measurement": "PEA3 protein expression", "setting": "PEA3; SK-Br3, SK-OV3 and NCI-N87, OA 20 μM, 48 hours", "value": "significant up-regulation"}, {"measurement": "expression levels of Her-2/neu transcripts (RT-PCR)", "setting": "Her-2/neu mRNA; OA-treated SK-Br3 cells", "value": "significant reduction"}, {"measurement": "AP-2 expression levels", "setting": "AP-2; Her-2/neu-overexpressing cancer cells, OA supplementation", "value": "failed to modulate"}]}
{"smiles": "CCCCCC=CCC=CCC=CCCCCC(=O)O", "note": "[GLA, 6,9,12-octadecatrienoic acid]", "values": [{"measurement": "levels of cell surface-associated Her-2/neu protein versus vehicle-treated cells", "setting": "p185^Her-2/neu; BT-474 and SK-Br3 cells, GLA 10 μg/mL for 48 hours", "value": "substantially lower"}, {"measurement": "anchorage-independent growth in soft agar, effect of GLA cotreatment", "setting": "SK-Br3 and BT-474 cells; BT-474 and SK-Br3, GLA with suboptimal doses of trastuzumab", "value": "enhanced the growth-inhibitory effects"}, {"measurement": "levels of PEA3 protein", "setting": "PEA3; BT-474 and SK-Br3, GLA 10 μg/mL for 48 hours", "value": "increase"}, {"measurement": "levels of PEA3 protein", "setting": "PEA3; MDA-MB-231, GLA exposure", "value": "not changed substantially"}, {"measurement": "PEA3 protein expression", "setting": "PEA3; MDA-MB-453, SK-OV3 and NCI-N87, GLA 10 μg/mL for 48 hours", "value": "increased"}, {"measurement": "transcription of the Her-2/neu gene (RT-PCR)", "setting": "Her-2/neu mRNA; BT-474 and SK-Br3, GLA 5, 10, or 20 μg/ml for 48 hours", "value": "Strong, dose-dependent decreases"}, {"measurement": "AP-2 expression", "setting": "AP-2; GLA-treated cells", "value": "does not appear to regulate"}]}
